Laboratory results from paper PMC9861386, “N-Heterocyclic Carbene-Iridium Complexes as Photosensitizers for In Vitro Photodynamic Therapy to Trigger Non-Apoptotic Cell Death in Cancer Cells” (Molecules, 2023).

Tested on: MCF7/FasR and MCF7/FasR/Bcl-xL cells
Test: Bcl-xL dependence of cell death, MTT in MCF7/FasR vs MCF7/FasR/Bcl-xL
Assay type: cell-based, human
Settings: complexes: 458 nm irradiation, 10 nM to 1 µM, TNFα 100 ng/mL, 72 h
Excerpt: To determine the mechanism of cell death, we used MCF7 cells transfected to express the human Fas receptor (FasR) or doubly transfected to express the human Fas receptor and human Bcl-xL [75]. Since MCF7 cells express the TNF receptor endogenously, this allowed the study of both Fas- and TNFα-mediated apoptosis in the same cell model to assess whether cell death was dependent on the Bcl-2 family of mitochondrial proteins such as Bcl-xL. […]
Mitochondrial outer membrane permeabilization (MOMP), which leads to rapid cell death through the release of mitochondrial proteins (including cytochrome c) that activate executioner caspases, is the critical event in intrinsic apoptosis. […] We then assessed whether the cell death induced by our complexes could be abrogated by the overexpression of Bcl-xL.
A tetrazolium-based MTT reagent (3-(4,5-dimethylthiazol-2-yl)-2,5-diphenyltetrazolium bromide) was used to determine cell viability, as previously described. […] After solubilization with 500 μL of lysis buffer (DMSO), formazan was quantified by spectrophotometry with a microplate reader at 570 nm absorbance (ClarioSTAR, BMG LabTech, Champigny-sur-Marne, France). […] All results were calculated from data obtained in at least three independent experiments. […]
Figure 13 Evaluation of apoptotic biomarkers. […] (B) MTT, ATP and GSH assays were evaluated in duplicate samples. […]

In the case of `CC(C)[n+]1ccn2[c]1[Ir-3]13([c]4ccccc4-c4cccc[n+]41)([c]1ccccc1-c1cccc[n+]13)[c]1n(cc[n+]1C(C)C)C2.F[P-](F)(F)(F)(F)F` [Complex 4a], the “effect of Bcl-xL overexpression on loss of cell viability” value was “not affected by Bcl-xL overexpression”.
